Experimental findings from patent US10023615B2, “Efficient transport into white blood cells” (priority 2008, dated 2018) are described below.

One data set relates to U937 lymphoma cells. In words: Uptake (internalization) of FITC-labeled TAT derived transporter constructs in U937 cells, fluorescence plate reader. Type of data set: cell-based.
A further data set concerns U937 cells. In words: Intracellular concentration of transporter constructs subsequent to uptake into U937 cells. Type of data set: cell-based. The following applies: for intracellular concentration of transporter construct subsequent to uptake: U937 cells, 10 μM construct. Here is the method: 9. Determination of Intracellular Concentration of Specific Transporter Constructs Subsequent to Uptake (Internalization) of these Peptides into U937 Cells • According to a further experiment, the concentration of specific transporter constructs subsequent to uptake (internalization) of these peptides into U937 cells were determined.

In data set [1] the test system is dissociated cortical primary neurons. In words: Confocal microscopy of FITC-labeled TAT derivative transporters in cortical primary neurons. Type of data set: cell-based, rat. The following applies: 500 nM, 24 hours. Here is the method: 8.4 Internalization Experiments and Analysis • The time dependant internalization (uptake) of FITC-labeled TAT derived transporter constructs into cells of the HL-60 cell line was carried out with materials and methods as described above. • Briefly, HL-60 cells were incubated 30 min, 1, 6 or 24 hours with 10 μM of the TAT-derivative transporters. The cells were then washed twice with an acidic buffer (0.2 M Glycin, 0.15 M NaCl, pH 3.0) and twice with PBS. Cells were broken by the addition of RIPA lysis buffer. The relative amount of internalized peptide was then determined by reading the fluorescence intensity (Fusion Alpha plate reader; PerkinElmer) of each extract followed by background substraction and protein content normalization. […] The dissociated cortical primary neurons from P2 Sprague Dawley rats were cultured 12 days in neurobasal medium before exposure 24 hours to 500 nM of the FITC-labeled • TAT derivative transporters. The cells were washed five times with PBS on ice and then mounted in fluorsave mounting medium without prior fixation. Acquisitions were performed on LSM510 metaconfocal microscope (Zeiss). Images were processed with LSM510 software and mounted using Adobe photoshop. Visualization by confocal microscopy of labeling with 500 nM FITC-transporters (A: green). Nuclei were stained by Hoechst (B: blue).

In data set [2] the test system is HepG2 hepatocarcinoma, HCT-116 tumoral colon. The experiment in a line: Uptake of FITC-labeled TAT derived transporter constructs in HepG2 and HCT-116. In kind it is cell-based, human. The following applies: 10 μM, 24 h.
The nature of data set [3]: Tissue distribution of C14 radiolabeled D-TAT-tagged peptides. In kind it is in vivo, mouse. To be noted: 1 mg/kg s.c., i.v., i.p.; 72 hours after injection. How it is done: Mice were treated via three different routes of administration (s.c., i.v., i.p.) with radiolabeled peptides with C^14 (1 mg/kg). Animals were sacrificed 72 hours after injection and processed for immunoradiography. […] This illustrates that the transporter D-TAT is responsible for the tissue distribution.

The next data set has as its system Monocytes (CD14). In words: Flow cytometry of FITC-transporter content in primary human white blood cells: monocytes. To be noted: 1 uM, 30 min. In kind it is cell-based. An excerpt:
(§1) Primary human white blood cells (WBC) were obtained from whole blood after red blood cell lysis. […] Cells containing D-TAT-FITC and r3-L-TAT-FITC were finally analysed by flow cytometry to measure their respective transporter content.
(In general: Flow cytometry measures light scatter and fluorescence of single cells or particles in a stream.)

The subject of another data set is Neutrophils (CD15). The experiment in a line: Flow cytometry of FITC-transporter content in primary human white blood cells: neutrophils. In kind it is cell-based. To be noted: 1 uM, 30 min.
From the text: as §1

The next data set concerns Lymphocytes T (CD3). The experiment in a line: Flow cytometry of FITC-transporter content in primary human white blood cells: lymphocytes T. Type of data set: cell-based. To be noted: 1 uM, 30 min.
From the text: as §1

For another data set, the system named is Lymphocytes B (CD19). In words: Flow cytometry of FITC-transporter content in primary human white blood cells: lymphocytes B. Type of data set: cell-based. To be noted: 1 uM, 30 min.
From the text: as §1

For another data set, the system named is Hela cells. In words: Internalization of r3-L-TAT-derived transporters in Hela cells. Type of data set: cell-based. The following applies: 2, 6 or 24 hours; 0, 500 nM, 1 mM or 10 mM. From the text: The time dependant internalization (uptake) of FITC-labeled TAT derived transporter constructs into cells of the HL-60 cell line was furthermore carried out with materials and methods as described above using sequences of the 96-FITC-labeled D-TAT derivative transporters. These sequences are listed below.
• In the above table D amino acids are indicated by a small “d” prior to the respective amino acid residue (e.g. dR=D-Arg). • For a few sequences synthesis failed in the first approach unfortunately due to technical reasons. […] Hela cells were incubated 24 hours in 96 well plate with […] of the r3-L-TAT-derived transporters. Alternatively, human lymphoma cells are used. The cells were then washed twice with an acidic buffer (0.2M Glycin, 0.15M NaCl, pH 3.0) and twice with PBS. Cells were broken by the addition of RIPA lysis buffer. […] Briefly, Hela cells were incubated 2, 6 or 24 hours in 24 well plate with increasing dose of the r3-L-TAT-derivative transporters (0, 500 nM, 1 mM or 10 mM). The cells were then washed twice with an acidic buffer (0.2M Glycin, 0.15M NaCl, pH 3.0) and twice with PBS. Cells were broken by the addition of RIPA lysis buffer.

Another data set relates to TC-3 cells. The experiment in a line: Inhibition of IL-1 induced pancreatic beta-cell death. In kind it is cell-based. To be noted: 1 μM single addition, IL-1 every two days, 15 days. How it is done:
Inhibition of IL-1 induced pancreatic beta-cell death by the D-TAT-IB1(s) peptide was analyzed. TC-3 cells were incubated for 30 minutes with one single addition of the indicated peptides (1, μM), then IL-1 (10 ng/ml) was added.
Apoptotic cells were then counted after two days of incubation with IL-1 by use of Propidium Iodide and Hoechst 33342 nuclear staining. A minimum of 1,000 cells were counted for each experiment.
Long term inhibition of IL-1P induced cell-death by the D-TAT-IB1 peptide was also analyzed. TC-3 cells were incubated for 30 minutes with one single addition of the indicated peptides (1 μM), then IL-1 (10 ng/ml) was added, followed by addition of the cytokine every two days. Apoptotic cells were then counted after 15 days of incubation with IL-1 by use of propidium iodide and Hoechst 33342 nuclear staining. […] A minimum of 1.000 cells were counted for each experiment.

Square brackets hold non-standard residues; d marks the D form. Ends that are not written are not given here.

Protocol for U937 lymphoma cells: Cells were plated into poly-DL-lysine coated dishes at a concentration of 1×10^6 cells/ml. Plates were then incubated for 24 h at 37° C., 5% CO2, and 100% relative humidity prior to the addition of a known concentration of peptide. After peptide addition, the cells were incubated 30 min, 1, 6 or 24 h at 37° C., 5% CO2, and 100% relative humidity. Cells were then washed twice with an acidic buffer (Glycin 0.2 M, NaCl 0.15 M, pH 3.0) in order to remove the cell-surface adsorbed peptide (see Kameyama et al., (2007), Biopolymers, 88, 98-107). […] The cell wash using an acidic buffer was thus employed to remove the cell-surface adsorbed peptides. […] Cells were broken by the addition of the RIPA lysis buffer. The relative amount of internalized peptide was then determined by fluorescence after background substraction and protein content normalization. • The steps are thus: 1. […] Analysis of peptide internalization with a fluorescence plate reader • f) Cell Culture and Peptide Treatment • (1) The 6 well culture plates are coated with 3 ml of Poly-D-Lys (Sigma P9011; 25 μg/ml in PBS), the 24 well plates with 600 μl and the 96 well plates with 125 μl and incubated for 4 h at 37° C., CO2 5% and 100% relative humidity. • (2) After 4 hours the dishes were washed twice with 3.5 ml PBS, 700 μl or 150 μl PBS for the 6, 24 or 96 well plates, respectively. • (3) The cells were plated into the dishes in 2.4 ml medium (RPMI) at plating densities of 1′000′000 cells/ml for suspension cells. After inoculation, the plates were incubated at 37° C., 5% CO2 and 100% relative humidity for 24 hours prior to the addition of the peptide. Adherent cells should be at a density of 90-95% the day of treatment and were plated in DMEM :
• (4) The cells were treated with the desired concentration of FITC labeled peptide (stock solution at a concentration of 10 mM in H2O). • (5) Following peptide addition, the cells were incubated 0 to 24 hours (e.g. 30 min, 1, 6 or 24 hours) at 37° C., CO2 5% and 100% relative humidity. • Acidic Wash and Cellular Extracts: • (6) The extracts were cooled on ice. • Suspension cells (or cells, which don attach well to the dish): • Transfer the cells in ? […] To recover the maximum of cells, wash the dish with 1 ml of PBS. • Harvest the cells 2 min at 2400 rpm max. • Suspend the cells in 1 ml cold PBS. • Transfer the cells into a coated “Eppendorf tube” (coated with 1 ml of poly D-Lys for 4 hours and washed twice with 1 ml PBS). • Wash three times with 1 ml of cold acidic wash buffer and centrifuge 2 min at 2400 rpm max. Beware of the spreading of the cells in the “eppendorf”. • Wash twice with 1 ml cold PBS to neutralize. • Add 50 μl of lysis RIPA Buffer. • Incubate 30 min-1 h on ice with agitation. • Adherent Cells: • Wash three times with 3 ml, 1 ml or 200 μl (for 6, 24 or 96 well plates, respectively) of cold acidic wash buffer. Beware of the cells who detach from the dish. • Wash twice with 1 ml cold PBS (for 6, 24 or 96 well plates, respectively) to neutralize. • Add 50 μl of lysis RIPA buffer. • Incubate 30 min-1 h on ice with agitation. • Scrap the cells with a cold scrapper. The 24 and 96 well plates were directly centrifuged at 4000 rpm at 4° for 15 min to remove the cellular debris. Then the supernatants (100 or 50 ml respectively for the 24 or 96 well plates) were directly transferred in a dark 96 well plated.

Turning to rrrqrrkkr [D-TAT], the “uptake (internalization)” value is recorded as “most efficient” with U937 lymphoma cells (10 μM, U937, Lymphoma, 24 h) and “most efficient” in data set [2]. Besides, the “HSPG dependency of uptake (internalization)” value with U937 lymphoma cells (500 nm over 24 hours in U937 cells) is “HSPG-dependent”. In addition, the “intracellular concentration of transporter construct subsequent to uptake” value in the data set with U937 cells (2 h) is listed as 2.00; in the data set on U937 cells (4 h), 2.24; in the data set with U937 cells (6 h) it was 3.55; with U937 cells (24 h), 17.3. Further, in [1], the “internalization seen by confocal microscopy” value is “internalized into the cytoplasm of the non stressed neurons”. The “tissue distribution (accumulation)” value in data set [3] was “in the liver, spleen, and bone marrow predominantly”. Besides, the “binding to cell population” value is “binds to monocytes, neutrophils and lymphocyte T cells” in the data set on Monocytes (CD14); “binds to monocytes, neutrophils and lymphocyte T cells” in the data set with Neutrophils (CD15); “seeming to bind more efficiently to lymphocyte T than the r3-L-TAT” with Lymphocytes T (CD3); “binds to monocytes, neutrophils and lymphocyte T cells” in the data set on Lymphocytes T (CD3) (listed as dTAT); “less efficiently to lymphocyte B cells” in the data set with Lymphocytes B (CD19).
For rrrRRRrrr [r6R3], in data set [2], the “uptake (internalization)” value is “most efficient”.
For “rYKRrQRRr ([dR]YKR[dR]QRR[dR]) [TAT(s2-91)]”, in the data set with U937 cells (10 μM in medium), the “accumulation in the cell (intracellular concentration)” value is “significantly higher than the concentration of the transporter construct in the medium”. Further, the “intracellular concentration of transporter construct subsequent to uptake” value in the data set on U937 cells (2 h) is reported as 3.16; in the data set on U937 cells (4 h), 4.27; with U937 cells (6 h) it was 4.68; in the data set with U937 cells (24 h), 50. Also, the “transporter activity and kinetics of transport activity” value in the data set with Hela cells is recorded as “highest transporter activity”.
Consider “L-TAT-IB1(s): SEQ ID NO: 234: L-IB1(s) linked to 10 amino acid L-TAT carrier via two proline residues (GRKKRRQRRRPPRPKRPTTLNLFPQVPRSQD; Description of sequence L-TAT-IB1 (s))”, for which the “long term protection against IL-1 induced cell-death” value in the data set with TC-3 cells was “but not L-TAT-IB1(s), was able to confer long term (15 day) protection”.
